Test results as given in the NIST ThermoML archive (doi:10.1016/j.fluid.2015.07.049).
Numbers after ± are expanded uncertainties.

Conditions: 313.15 K; Liquid

vapor or sublimation pressure | SMILES
12.94 ± 0.057 kPa | CC(C)CC(C)(C)C [2,2,4-trimethylpentane]
12.31 ± 0.055 kPa | CCCCCCC [heptane]
0.898 ± 0.018 kPa | CCCCCO [pentan-1-ol]
